In ChEMBL document CHEMBL4477260, “Arylazolyl(azinyl)thioacetanilides. Part 20: Discovery of novel purinylthioacetanilides derivatives as potent HIV-1 NNRTIs via a structure-based bioisosterism approach” (Bioorg Med Chem, 2016):

What was measured:
[1] = system: Human immunodeficiency virus 1; assay: Antiviral activity against human HIV-1 3B harboring RES056 mutant infected in human MT4 cells assessed as protection from virus-induced cytopathic effect measured 5 days post infection by MTT assay; format: functional, organism-based; conditions: Human immunodeficiency virus 1, 3B, MT4, 120 h
[2] = system: Human immunodeficiency virus 1; assay: Antiviral activity against human HIV-1 3B infected in human MT4 cells assessed as protection from virus-induced cytopathic effect measured 5 days post infection by MTT assay; format: functional, organism-based; conditions: Human immunodeficiency virus 1, 3B, MT4, 120 h
[3] = Cytotoxicity against mock-infected human MT4 cells assessed as reduction of cell viability after 5 days by MTT assay; format: cell-based
[4] = Selectivity index, ratio of CC50 for mock-infected human MT4 cells to EC50 for human HIV-1 3B harboring RES056 mutant infected in human MT4 cells; format: toxicity, cell-based; conditions: MT4 cells (mock-infected for CC50, HIV-1-infected for EC50)
[5] = Selectivity index, ratio of CC50 for mock-infected human MT4 cells to EC50 for human HIV-1 3B infected in human MT4 cells; format: toxicity, cell-based; conditions: MT4 cells (mock-infected for CC50, HIV-1-infected for EC50)
[6] = Selectivity index, ratio of CC50 for mock-infected human MT4 cells to EC50 for human HIV-1 3B harboring Y181C mutant infected in human MT4 cells; format: toxicity, cell-based; conditions: MT4 cells (mock-infected for CC50, HIV-1-infected for EC50)
[7] = system: Human immunodeficiency virus 1; assay: Antiviral activity against human HIV-1 3B harboring reverse transcriptase Y188L mutant infected in human MT4 cells assessed as protection from virus-induced cytopathic effect measured 5 days post infection by MTT assay; format: functional, organism-based; conditions: Human immunodeficiency virus 1, 3B, MT4, 120 h
[8] = Selectivity index, ratio of CC50 for mock-infected human MT4 cells to EC50 for human HIV-1 3B harboring L100I mutant infected in human MT4 cells; format: toxicity, cell-based; conditions: MT4 cells (mock-infected for CC50, HIV-1-infected for EC50)
[9] = system: Human immunodeficiency virus 1; assay: Antiviral activity against human HIV-1 3B harboring reverse transcriptase L100I mutant infected in human MT4 cells assessed as protection from virus-induced cytopathic effect measured 5 days post infection by MTT assay; format: functional, organism-based; conditions: Human immunodeficiency virus 1, 3B, MT4, 120 h
[10] = system: Human immunodeficiency virus 1; assay: Antiviral activity against human HIV-1 3B harboring reverse transcriptase Y181C mutant infected in human MT4 cells assessed as protection from virus-induced cytopathic effect measured 5 days post infection by MTT assay; format: functional, organism-based; conditions: Human immunodeficiency virus 1, 3B, MT4, 120 h
[11] = Selectivity index, ratio of CC50 for mock-infected human MT4 cells to EC50 for human HIV-1 3B harboring E138K mutant infected in human MT4 cells; format: toxicity, cell-based; conditions: MT4 cells (mock-infected for CC50, HIV-1-infected for EC50)
[12] = system: Human immunodeficiency virus 1; assay: Antiviral activity against human HIV-1 3B harboring reverse transcriptase E138K mutant infected in human MT4 cells assessed as protection from virus-induced cytopathic effect measured 5 days post infection by MTT assay; format: functional, organism-based; conditions: Human immunodeficiency virus 1, 3B, MT4, 120 h
[13] = Selectivity index, ratio of CC50 for mock-infected human MT4 cells to EC50 for human HIV-1 3B harboring K103N mutant infected in human MT4 cells; format: toxicity, cell-based; conditions: MT4 cells (mock-infected for CC50, HIV-1-infected for EC50)
[14] = system: Human immunodeficiency virus 1; assay: Antiviral activity against human HIV-1 3B harboring reverse transcriptase F227L/V106A double mutant infected in human MT4 cells assessed as protection from virus-induced cytopathic effect measured 5 days post infection by MTT assay; format: functional, organism-based; conditions: Human immunodeficiency virus 1, 3B, MT4, 120 h
[15] = Selectivity index, ratio of CC50 for mock-infected human MT4 cells to EC50 for human HIV-1 3B harboring F227L/V106A double mutant infected in human MT4 cells; format: toxicity, cell-based; conditions: MT4 cells (mock-infected for CC50, HIV-1-infected for EC50)
[16] = system: Human immunodeficiency virus 1; assay: Antiviral activity against human HIV-1 3B harboring reverse transcriptase K103N mutant infected in human MT4 cells assessed as protection from virus-induced cytopathic effect measured 5 days post infection by MTT assay; format: functional, organism-based; conditions: Human immunodeficiency virus 1, 3B, MT4, 120 h
[17] = Selectivity index, ratio of CC50 for mock-infected human MT4 cells to EC50 for human HIV-1 3B harboring Y188L mutant infected in human MT4 cells; format: toxicity, cell-based; conditions: MT4 cells (mock-infected for CC50, HIV-1-infected for EC50)
[18] = molecular target: Human immunodeficiency virus type 1 reverse transcriptase (Human immunodeficiency virus 1, UniProt Q72547); assay: Inhibition of HIV-1 reverse transcriptase assessed as reduction in biotin-duTP incorporation using biotin-labeled dUTP and hybrid poly(A)-oligo (dT)15 template primer after 2 hrs by ELISA

NC(=O)c1ccc(NC(=O)CSc2nc3cnc(Cl)nc3n2-c2cccc3ccccc23)cc1
EC50 [1]: > 156 µM
EC50 [2]: ≥ 28.8 µM
CC50 at 120 h [3]: 156 µM
selectivity ratio [4]: < 1
selectivity ratio [5]: ≤ 5

CC(Sc1nc2cnc(Cl)nc2n1-c1cccc2ccccc12)C(=O)Nc1ccc(S(N)(=O)=O)cc1Cl (stereo not drawn)
EC50 [1]: > 21.5 µM
EC50 [2]: 1.07 µM
CC50 at 120 h [3]: 21.5 µM
selectivity ratio [4]: < 1
selectivity ratio [5]: 20

O=C(CSc1nc2cnc(Cl)nc2n1-c1cccc2ccccc12)Nc1ccc(C(F)(F)F)cc1
EC50 [2]: > 14.3 µM
CC50 at 120 h [3]: 14.2 µM
selectivity ratio [5]: < 1

Cc1ccnc2c1NC(=O)c1cccnc1N2C1CC1 [NEVIRAPINE]
CC50 at 120 h [3]: ≥ 15 µM

CC(Sc1nc2cnc(Cl)nc2n1-c1ccc(C2CC2)c2ccccc12)C(=O)Nc1ccc(S(N)(=O)=O)cc1Cl (stereo not drawn)
EC50 [1]: ≥ 5.74 µM
EC50 [2]: 4.04 µM
CC50 at 120 h [3]: 17.6 µM
selectivity ratio [4]: ≤ 3
selectivity ratio [5]: 4

NC(=O)c1ccc(NC(=O)CSc2nc3cnc(Cl)nc3n2-c2cccc3ccccc23)c(Cl)c1
EC50 [1]: > 22.7 µM
EC50 [2]: 4.56 µM
CC50 at 120 h [3]: 22.7 µM
selectivity ratio [4]: < 1
selectivity ratio [5]: 5

CCOC(=O)c1ccc(NC(=O)CSc2nc3cnc(Cl)nc3n2-c2ccc(C3CC3)c3ccccc23)c(Br)c1
EC50 [2]: > 150 µM
CC50 at 120 h [3]: 150 µM
selectivity ratio [5]: < 1

CC(Sc1nc2cnc(Cl)nc2n1-c1ccc(C2CC2)c2ccccc12)C(=O)Nc1ccc(S(N)(=O)=O)cc1Br (stereo not drawn)
EC50 [1]: > 15.9 µM
EC50 [2]: 2.75 µM
CC50 at 120 h [3]: 15.9 µM
selectivity ratio [4]: 1
selectivity ratio [5]: 6

CCOC(=O)c1ccc(NC(=O)CSc2nc3cnc(Cl)nc3n2-c2cccc3ccccc23)c(Br)c1
EC50 [1]: > 109 µM
EC50 [2]: 3.43 µM
CC50 at 120 h [3]: 109 µM
selectivity ratio [4]: < 1
selectivity ratio [5]: 32

CC(Sc1nc2cnc(Cl)nc2n1-c1ccc(C2CC2)c2ccccc12)C(=O)Nc1ccc(C(N)=O)cc1Br (stereo not drawn)
selectivity ratio [6]: < 1
EC50 [7]: > 55.8 µM
selectivity ratio [8]: 8
EC50 [9]: 5.64 µM
EC50 [10]: > 55.8 µM
EC50 [1]: 22.2 µM
selectivity ratio [11]: ≤ 1
EC50 [12]: ≥ 65.1 µM
EC50 [2]: 7.22 µM
CC50 at 120 h [3]: 55.9 µM
selectivity ratio [13]: ≤ 1
EC50 [14]: > 55.8 µM
selectivity ratio [4]: 10
selectivity ratio [15]: < 1
EC50 [16]: ≥ 48.1 µM
selectivity ratio [17]: < 1
selectivity ratio [5]: 8

CC(Sc1nc2cnc(Cl)nc2n1-c1cccc2ccccc12)C(=O)Nc1ccc(C(N)=O)cc1Br (stereo not drawn)
EC50 [1]: > 21.8 µM
EC50 [2]: 1.86 µM
CC50 at 120 h [3]: 21.8 µM
selectivity ratio [4]: < 1
selectivity ratio [5]: 12

COC(=O)c1ccc(NC(=O)CSc2nc3cnc(Cl)nc3n2-c2cccc3ccccc23)c(Br)c1
EC50 [1]: > 156 µM
EC50 [2]: 1.66 µM
CC50 at 120 h [3]: 156 µM
selectivity ratio [4]: < 1
selectivity ratio [5]: 94

CC(Sc1nc2cnc(Cl)nc2n1-c1cccc2ccccc12)C(=O)Nc1ccc(S(N)(=O)=O)cc1Br (stereo not drawn)
IC50 [18]: 6.42 µM
EC50 [1]: > 19 µM
EC50 [2]: 0.78 µM
CC50 at 120 h [3]: 19 µM
selectivity ratio [4]: < 1
selectivity ratio [5]: 24

NS(=O)(=O)c1ccc(NC(=O)CSc2nc3cnc(Cl)nc3n2-c2ccc(C3CC3)c3ccccc23)cc1
EC50 [1]: > 113 µM
EC50 [2]: 18.7 µM
CC50 at 120 h [3]: 113 µM
selectivity ratio [4]: < 1
selectivity ratio [5]: 6

CC(Sc1nc2cnc(Cl)nc2n1-c1cccc2ccccc12)C(=O)Nc1ccc(C(N)=O)cc1Cl (stereo not drawn)
EC50 [1]: > 23.6 µM
EC50 [2]: 2.73 µM
CC50 at 120 h [3]: 23.6 µM
selectivity ratio [4]: < 1
selectivity ratio [5]: 9

NC(=O)c1ccc(NC(=O)CSc2nc3cnc(Cl)nc3n2-c2ccc(C3CC3)c3ccccc23)c(Cl)c1
EC50 [2]: > 6.39 µM
CC50 at 120 h [3]: 6.39 µM
selectivity ratio [5]: < 1

O=C1Nc2ccc(Cl)cc2[C@@](C#CC2CC2)(C(F)(F)F)O1 [EFAVIRENZ]
CC50 at 120 h [3]: ≥ 6.34 µM

NS(=O)(=O)c1ccc(NC(=O)CSc2nc3cnc(Cl)nc3n2-c2cccc3ccccc23)cc1
EC50 [1]: > 104 µM
EC50 [2]: 4.46 µM
CC50 at 120 h [3]: 104 µM
selectivity ratio [4]: < 1
selectivity ratio [5]: 23

CC(C)Nc1cccnc1N1CCN(C(=O)c2cc3cc(NS(C)(=O)=O)ccc3[nH]2)CC1 [DELAVIRDINE]
selectivity ratio [6]: 15
selectivity ratio [8]: 14
selectivity ratio [11]: 715
EC50 [2]: 0.0383 µM
CC50 at 120 h [3]: 36.8 µM
selectivity ratio [13]: 12
selectivity ratio [15]: 16
selectivity ratio [17]: 44

COC(=O)c1ccc(NC(=O)CSc2nc3cnc(Cl)nc3n2-c2ccc(C3CC3)c3ccccc23)c(Br)c1
EC50 [2]: > 153 µM
CC50 at 120 h [3]: 153 µM
selectivity ratio [5]: < 1

O=C(CSc1nc2cnc(Cl)nc2n1-c1ccc(C2CC2)c2ccccc12)Nc1ccc(C(F)(F)F)cc1
EC50 [2]: > 16.2 µM
CC50 at 120 h [3]: 16.2 µM
selectivity ratio [4]: < 1
selectivity ratio [5]: < 1

NC(=O)c1ccc(NC(=O)CSc2nc3cnc(Cl)nc3n2-c2ccc(C3CC3)c3ccccc23)c(Br)c1
EC50 [2]: > 11.2 µM
CC50 at 120 h [3]: 11.2 µM
selectivity ratio [5]: < 1

Cc1cc(C#N)cc(C)c1Oc1nc(Nc2ccc(C#N)cc2)nc(N)c1Br [ETRAVIRINE]
EC50 [10]: 0.015 µM
EC50 [2]: 0.00335 µM
CC50 at 120 h [3]: 2.46 µM

NC(=O)c1ccc(NC(=O)CSc2nc3cnc(Cl)nc3n2-c2cccc3ccccc23)c(Br)c1
EC50 [1]: > 21.6 µM
EC50 [2]: 1.8 µM
CC50 at 120 h [3]: 21.6 µM
selectivity ratio [4]: < 1
selectivity ratio [5]: 12

CC(Sc1nc2cnc(Cl)nc2n1-c1ccc(C2CC2)c2ccccc12)C(=O)Nc1ccc(C(N)=O)cc1Cl (stereo not drawn)
EC50 [2]: > 25.1 µM
CC50 at 120 h [3]: 25.1 µM
selectivity ratio [5]: < 1
